# How the values were obtained:
# [1] = tested on: dopamine reuptake; conditions: relative to serotonin and norepinephrine uptake; cited from earlier work
# [2] = tested on: monoamine oxidase; conditions: cited from earlier work
# [3] = tested on: norepinephrine uptake; conditions: cited from earlier work
# [4] = tested on: histaminergic receptors; conditions: in vitro; cited from earlier work
# [5] = tested on: obesity in non-depressed outpatients; experiment: Obesity Reduction Test: randomized double-blind comparison of venlafaxine and placebo capsules; type: in vivo, humans
# Experimental: A randomized double-blind comparison of venlafaxine and placebo capsules was tested as a treatment for obesity in non-depressed outpatients. […] Each participant in the comparison weighed more than 20%, but less than 100%, above the mean value for sex, height and bone structure according to the 1983 Metropolitan Height and Weight Table. The women in the comparison of childbearing potential received a negative pregnancy test result and agreed to use medically acceptable forms of contraception throughout the period covered by the comparison.
# Subsequently the dose was increased from 50 mg/day to 150 mg/day through study day 14. On study day 15 the dose was increased to 225 mg/day (3 tablets 3 times a day) and this dose was continued for the remainder of the 70 day study. The patients in both groups were also given instructions to decrease their food intake by 20% and to increase their exercise by the same amount. These directives were given to standardize dietary instructions and to try to prevent patients from starting “crash” diets or exercise programs. A specific diet was not prescribed.
# Comparisons within groups were performed on changes from baseline weight and body mass index. Body mass index was computed according to the following formula: [formula]
# [6] = tested on: adrenergic receptors; conditions: in vitro; cited from earlier work
compound,measurement,setting,value
"COc1ccc(C(CN(C)C)C2(O)CCCCC2)cc1 (centres unmarked) [venlafaxine, 1-[2-(dimethylamino)-1-(4-methoxyphenyl)ethyl] cyclohexanol]",inhibition of dopamine reuptake,[1],"To a lesser degree, venlafaxine also inhibits dopamine reuptake"
same,inhibitory activity on monoamine oxidase,[2],no inhibitory activity
same,inhibition of norepinephrine uptake,[3],potent inhibition
same,affinity for histaminergic receptors,[4],virtually no affinity
same,"mean weight decreases and mean percent decreases from baseline, significance",[5]; beginning at week 1,consistent statistically significant mean weight decreases and mean percent decreases from baseline beginning at week 1
same,mean percent decrease from baseline (body weight),"[5]; week 10, venlafaxine up to 225 mg/day",3.6%
same,mean decrease in body weight,"[5]; week 10, venlafaxine up to 225 mg/day, change from baseline",7.5 lb
same,affinity for adrenergic receptors,[6],virtually no affinity

# From patent US6555586B2 (Wyeth, priority 1993, dated 2003)
